Assays:
Assay in all cases: relative viability (nuclei count vs DMSO), 5 days (fraction); higher = more cells survive
Doxorubicin + Foretinib = compound: COc1cccc2c1C(=O)c1c(O)c3c(c(O)c1C2=O)C[C@@](O)(C(=O)CO)C[C@@H]3O[C@H]1C[C@H](N)[C@H](O)[C@H](C)O1 [Doxorubicin] + COc1cc2c(Oc3ccc(NC(=O)C4(C(=O)Nc5ccc(F)cc5)CC4)cc3F)ccnc2cc1OCCCN1CCOCC1 [Foretinib] (partner 0.25 µM)
Method in brief: (§1)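 Values are medians from duplicate plates. Each reflects relative viability, defined as the nuclei count of treated wells over that of vehicle wells. Lung cancer cell lines in 1536-well plates were pin-tool dosed one day after seeding with one drug alone or with a fixed anchor-drug dose plus five library-drug doses (not always all listed) in √10 steps, then fixed, stained and imaged at 4× after 5 days.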

Doxorubicin + Trametinib = compound: COc1cccc2c1C(=O)c1c(O)c3c(c(O)c1C2=O)C[C@@](O)(C(=O)CO)C[C@@H]3O[C@H]1C[C@H](N)[C@H](O)[C@H](C)O1 [Doxorubicin] + CC(=O)Nc1cccc(-n2c(=O)n(C3CC3)c(=O)c3c(Nc4ccc(I)cc4F)n(C)c(=O)c(C)c32)c1 [Trametinib] (partner 0.02 µM)
Method in brief: as §1

BAY61-3606 + Pemetrexed = compound: COC1=C(C=C(C=C1)C2=CC3=NC=CN3C(=N2)NC4=C(C=CC=N4)C(=O)N)OC [BAY61-3606] + Nc1nc2[nH]cc(CCc3ccc(C(=O)N[C@@H](CCC(=O)O)C(=O)O)cc3)c2c(=O)[nH]1 [Pemetrexed] (partner 0.2 µM)
Method in brief: as §1

Doxorubicin + Pemetrexed = compound: COc1cccc2c1C(=O)c1c(O)c3c(c(O)c1C2=O)C[C@@](O)(C(=O)CO)C[C@@H]3O[C@H]1C[C@H](N)[C@H](O)[C@H](C)O1 [Doxorubicin] + Nc1nc2[nH]cc(CCc3ccc(C(=O)N[C@@H](CCC(=O)O)C(=O)O)cc3)c2c(=O)[nH]1 [Pemetrexed] (partner 0.2 µM)
Method in brief: as §1

| Cell Line | relative viability (Doxorubicin + Foretinib; first compound 0.001 µM) | relative viability (Doxorubicin + Foretinib; first compound 0.003162 µM) | relative viability (Doxorubicin + Foretinib; first compound 0.01 µM) | relative viability (Doxorubicin + Foretinib; first compound 0.03162 µM) | relative viability (Doxorubicin + Foretinib; first compound 0.1 µM) | relative viability (Doxorubicin + Trametinib; first compound 0.001 µM) | relative viability (Doxorubicin + Trametinib; first compound 0.003162 µM) | relative viability (Doxorubicin + Trametinib; first compound 0.01 µM) | relative viability (Doxorubicin + Trametinib; first compound 0.03162 µM) | relative viability (Doxorubicin + Trametinib; first compound 0.1 µM) | relative viability (BAY61-3606 + Pemetrexed; first compound 0.02 µM) | relative viability (BAY61-3606 + Pemetrexed; first compound 0.06325 µM) | relative viability (BAY61-3606 + Pemetrexed; first compound 0.2 µM) | relative viability (BAY61-3606 + Pemetrexed; first compound 0.6325 µM) | relative viability (BAY61-3606 + Pemetrexed; first compound 2 µM) | relative viability (Doxorubicin + Pemetrexed; first compound 0.001 µM) | relative viability (Doxorubicin + Pemetrexed; first compound 0.003162 µM) | relative viability (Doxorubicin + Pemetrexed; first compound 0.01 µM) | relative viability (Doxorubicin + Pemetrexed; first compound 0.03162 µM) | relative viability (Doxorubicin + Pemetrexed; first compound 0.1 µM) |
| --- | --- | --- | --- | --- | --- | --- | --- | --- | --- | --- | --- | --- | --- | --- | --- | --- | --- | --- | --- | --- |
| NCI-H2342 | 1.08 | 1.08 | 1.06 | 0.791 | 1.17 | 0.901 | 0.729 | 0.954 | 0.685 | 0.724 | 0.748 | 0.774 | 0.716 | 0.825 | 0.811 | 0.802 | 0.843 | 0.761 | 0.711 | 0.818 |
| HCC-15 |  | 0.922 | 0.94 | 0.49 | 0.404 | 0.381 | 0.395 | 0.393 | 0.379 | 0.407 | 0.235 | 0.216 | 0.233 | 0.213 | 0.204 | 0.239 | 0.215 | 0.228 | 0.205 | 0.205 |
| A-427 | 0.981 | 1.13 | 0.97 | 1.02 | 1.05 | 0.782 | 0.708 | 0.743 | 0.534 | 0.418 | 1.05 | 1.02 | 0.992 | 0.892 | 0.908 | 1.08 | 1.06 | 0.929 | 0.746 | 0.429 |
| NCI-H2347 | 0.845 | 0.847 | 0.708 | 1.02 | 0.714 | 0.197 | 0.297 | 0.284 | 0.281 | 0.283 | 0.429 | 0.424 | 0.438 | 0.418 | 0.403 | 0.417 | 0.424 | 0.42 | 0.507 | 0.463 |
| NCI-H1755 | 0.981 | 0.949 | 0.903 | 0.971 | 0.937 | 0.791 | 0.804 | 0.784 | 0.77 | 0.88 | 0.488 | 0.4 | 0.411 | 0.419 | 0.562 | 0.419 | 0.408 | 0.419 | 0.492 | 0.467 |
| SK-LU-1 | 0.85 | 0.812 | 0.76 | 0.507 | 0.333 | 0.375 | 0.528 | 0.445 | 0.361 | 0.282 | 0.974 | 1.02 | 1.01 | 0.968 | 0.661 | 0.929 | 1.08 | 0.903 | 0.601 | 0.513 |
| NCI-H1975 | 0.998 | 1 | 0.879 | 0.855 | 0.444 | 0.256 | 0.332 | 0.376 | 0.234 | 0.248 | 0.288 | 0.289 | 0.308 | 0.269 | 0.247 | 0.268 | 0.29 | 0.277 | 0.306 | 0.225 |
| NCI-H1703 |  | 0.304 | 0.3 |  | 0.24 |  |  |  |  |  |  |  |  |  |  |  |  |  |  |  |
| HCC-44 |  |  |  |  |  | 0.987 | 1.11 | 1.05 | 1.05 | 1.07 | 0.613 | 0.692 | 0.682 | 0.659 | 0.651 | 0.625 | 0.698 | 0.625 | 0.685 | 0.63 |
| NCI-H1793 |  | 0.881 | 0.63 | 0.531 | 0.594 |  | 0.4 | 0.373 | 0.4 | 0.4 | 0.983 | 0.88 | 0.896 | 1.13 | 1.08 |  | 1.11 | 0.904 | 0.617 | 0.784 |
| NCI-H596 | 0.981 | 1.04 | 0.976 | 0.619 | 0.964 | 0.733 | 0.896 | 0.661 | 0.659 | 0.671 | 0.454 | 0.511 | 0.534 | 0.555 | 0.486 | 0.499 | 0.505 | 0.526 | 0.473 | 0.486 |
| PC-3 [JPC-3] | 1.05 | 1.06 | 1.05 | 0.97 | 1.06 | 0.614 | 0.628 | 0.687 | 0.632 | 0.741 | 1.12 | 1.05 | 1.21 | 1.13 | 1.04 | 1.2 | 1.12 | 1.15 | 1.05 | 0.663 |
| HCC-366 |  | 0.963 | 0.967 | 1.01 | 0.94 | 0.334 | 0.363 | 0.353 | 0.227 | 0.325 | 0.187 | 0.174 | 0.181 | 0.164 | 0.165 | 0.301 | 0.18 | 0.171 | 0.201 | 0.161 |
| NCI-H1623 | 0.766 | 0.815 | 0.895 | 0.798 | 0.78 |  |  |  |  |  |  |  |  |  |  |  |  |  |  |  |
| Calu-6 | 0.945 | 1.01 | 0.828 | 0.619 | 0.362 |  |  |  |  |  |  |  |  |  |  |  |  |  |  |  |
| LCLC-103H | 0.767 | 0.82 | 0.786 | 0.66 | 0.758 | 0.704 | 0.725 | 0.697 | 0.65 | 0.623 | 0.437 | 0.441 | 0.457 | 0.462 | 0.446 | 0.499 | 0.484 | 0.458 | 0.467 | 0.466 |
| CAL-12T | 1.03 | 1.07 | 1.04 | 0.568 | 0.35 | 0.381 | 0.352 | 0.33 | 0.225 | 0.125 | 1.29 | 1.38 | 1.22 | 1.22 | 0.742 | 1.1 | 1.22 | 1.03 | 0.38 | 0.248 |
| NCI-H23 |  | 0.863 | 1.03 | 0.855 | 0.981 | 0.326 | 0.45 | 0.344 | 0.334 | 0.45 | 0.64 | 0.689 | 0.547 | 0.708 | 0.429 | 0.515 | 0.685 | 0.667 | 0.661 | 0.444 |

Reference: the supplement of paper PMC10307832
